From patent US11415579B2, “Assay for measuring a rate of reaction between a target and a ligand candidate” (Imperial College Innovations Ltd., priority 2016, dated 2022)

Experiments:
[1] = Kinetic thiol consumption assay with model thiol glutathione; assay type: physicochemical; set-up: Rate constant with glutathione (k(GSH)): unit not given here; conditions: for Rate constant with glutathione (k(GSH)): 500 μM ligand, 5 μM thiol, phosphate buffer pH 8; for Rate constant with Glutathione: Protein: Glutathione, cysteine position NA, in h-1
Summary of the method: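 First, 5 μM glutathione in degassed phosphate buffer (pH 8) receives immobilized TCEP beads (2% v/v). Then acrylamide is added and plates incubate 1 h at room temperature. Finally, fluorescence (380/470 nm) is normalized and fitted to first-order decay for rate constants.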

Cdk2(S276C) (C177A) = biological target: T1, Cdk2(S276C) (C177A) (Homo sapiens, UniProt P24941, C177A/S276C); experiment: Kinetic thiol consumption assay with Cdk2 mutant S276C; assay type: binding; set-up: key to Rate enhancement, Cdk2 S276C: rate constant with Cdk2 ÷ rate constant with model thiol (fold); conditions: additional mutation C177A; for Rate constant with Cdk2 S276C: Protein: Cdk2, cysteine position S276C, in h^-1
T1 construct: poly-histidine; made in house; host or cells: E. coli
Summary of the method: (§1)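 His-tagged single-surface-cysteine Cdk2 mutants (C177A background) from E. coli, 5 μM in degassed phosphate buffer pH 8, pre-treated with immobilized TCEP beads. Fluorescence (ex/em 380/470 nm) read after 1 h at room temperature, normalized to DMSO/thiol-only control; first-order decay fits gave rate constants, divided by model-thiol rate for rate enhancement.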

Cdk2(H71C) (C177A) = biological target: T2, Cdk2(H71C) (C177A) (Homo sapiens, UniProt P24941, C177A/H71C); experiment: Kinetic thiol consumption assay with Cdk2 mutant H71C; assay type: binding; set-up: key to Rate enhancement, Cdk2 H71C: rate constant with Cdk2 ÷ rate constant with model thiol (fold); conditions: additional mutation C177A; for Rate constant with Cdk2 H71C: Protein: Cdk2, cysteine position H71C, in h^-1
T2 construct: poly-histidine; made in house; host or cells: E. coli
Summary of the method: as §1

Cdk2(S181C) (C177A) = biological target: T3, Cdk2(S181C) (C177A) (Homo sapiens, UniProt P24941, C177A/S181C); experiment: Kinetic thiol consumption assay with Cdk2 mutant S181C; assay type: binding; set-up: key to Rate enhancement, Cdk2 S181C: rate constant with Cdk2 ÷ rate constant with model thiol (fold); conditions: additional mutation C177A; for Rate constant with Cdk2 S181C: Protein: Cdk2, cysteine position S181C, in h^-1
T3 construct: poly-histidine; made in house; host or cells: E. coli
Summary of the method: as §1

Cdk2(R122C) (C177A) = biological target: T4, Cdk2(R122C) (C177A) (Homo sapiens, UniProt P24941, C177A/R122C); experiment: Kinetic thiol consumption assay with Cdk2 mutant R122C; assay type: binding; set-up: key to Rate enhancement, Cdk2 R122C: rate constant with Cdk2 ÷ rate constant with model thiol (fold); conditions: additional mutation C177A; for Rate constant with Cdk2 R122C: Protein: Cdk2, cysteine position R122C, in h-1
T4 construct: poly-histidine; made in house; host or cells: E. coli
Summary of the method: as §1

Cdk2[C177A, F80C, K278C] = biological target: T5, Cdk2[C177A, F80C, K278C] (Homo sapiens, UniProt P24941, C177A/F80C/K278C); experiment: Kinetic thiol consumption assay with mutant Cdk2 as model thiol; assay type: binding; set-up: unit not given here; conditions: 500 μM ligand, 5 μM thiol, phosphate buffer pH 8
T5 construct: poly-histidine; made in house; host or cells: E. coli
Summary of the method: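 Model thiol: His-tagged human Cdk2 C177A/F80C/K278C (two engineered surface cysteines), E. coli-expressed, 5 μM in degassed phosphate buffer pH 8 with immobilized TCEP beads (2% v/v). Fluorescence (ex/em 380/470 nm) followed over time at room temperature, normalized to DMSO/thiol control. First-order decay fit gives rate constants.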

Cdk2(N272C) (C177A) = biological target: T6, Cdk2(N272C) (C177A) (Homo sapiens, UniProt P24941, C177A/N272C); experiment: Kinetic thiol consumption assay with Cdk2 mutant N272C; assay type: binding; set-up: key to Rate enhancement, Cdk2 N272: rate constant with Cdk2 ÷ rate constant with model thiol (fold); conditions: for Rate enhancement, Cdk2 N272: Cdk2 N272, additional mutation C177A; for Rate constant with Cdk2 N272C: Protein: Cdk2, cysteine position N272C, additional mutation C177A, in h^-1
T6 construct: poly-histidine; made in house; host or cells: E. coli
Summary of the method: as §1

Cdk2(C177A, F80C) = biological target: T7, Cdk2(C177A, F80C) (Homo sapiens, UniProt P24941, C177A/F80C); experiment: Kinetic thiol consumption assay with Cdk2 mutant F80C, incl. kobs versus concentration (Kd, k2); assay type: binding; set-up: key to Rate enhancement, Cdk2 F80C: Cdk2 rate constant divided by model-thiol rate constant; conditions: for Rate enhancement, Cdk2 F80C / Rate constant with Cdk2 F80C: additional mutation C177A; for Rate constant with Cdk2 F80C: Protein: Cdk2, cysteine position F80C, in h^-1
T7 construct: poly-histidine; made in house; host or cells: E. coli
Summary of the method: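 His-tagged Cdk2(C177A/F80C) from E. coli or model thiol, 5 μM in degassed phosphate buffer pH 8 with TCEP beads, reacted with acrylamide ligands; fluorescence (ex/em 380/470 nm) normalized to DMSO control and fitted to first-order decay for kobs. Kd and k2 obtained from hyperbolic fit of kobs versus ligand concentration.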

Cdk2(T182C) (C177A) = biological target: T8, Cdk2(T182C) (C177A) (Homo sapiens, UniProt P24941, C177A/T182C); experiment: Kinetic thiol consumption assay with Cdk2 mutant T182C; assay type: binding; set-up: key to Rate enhancement, Cdk2 T182C: rate constant with Cdk2 ÷ rate constant with model thiol (fold); conditions: additional mutation C177A; for Rate constant with Cdk2 T182C: Protein: Cdk2, cysteine position T182C, in h^-1
T8 construct: poly-histidine; made in house; host or cells: E. coli
Summary of the method: as §1

[2] = biological target: T9, human cyclin-dependent kinase 2 (Cdk2) (Homo sapiens, UniProt P24941); experiment: Kinetic thiol consumption assay with wild type Cdk2 (C177); assay type: binding; set-up: key to Rate enhancement, Cdk2 WT: k(Cdk2) divided by k(model thiol); Rate constant with Cdk2 (k(Cdk2)): unit not given here; conditions: for Rate constant with Cdk2 (k(Cdk2)): 500 μM ligand, 5 μM thiol, phosphate buffer pH 8; for Rate enhancement, Cdk2 WT: no additional mutations; for Rate constant with Cdk2 WT: Protein: Cdk2, cysteine position WT, in h^-1; for k(Cdk2)/k(Cdk2_mut) rate enhancement: model thiol Cdk2[C177A, F80C, K278C]; for k(Cdk2)/k(GSH) rate enhancement: model thiol glutathione
T9 construct: poly-histidine; made in house; host or cells: E. coli
Summary of the method: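 Rate constants came from first-order exponential decay fits of normalized fluorescence against time, with thiol (5 μM) in degassed pH 8 phosphate buffer containing 2% v/v TCEP beads and reads after 1 h at room temperature.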

[3] = hyperbolic fit of kobs against ligand concentration

Structure (SMILES) | Rate constant with glutathione (k(GSH)) [1] | Rate constant with Glutathione [1] | Rate enhancement, Cdk2 S276C (Cdk2(S276C) (C177A)) | Rate constant with Cdk2 S276C (Cdk2(S276C) (C177A)) | Rate enhancement, Cdk2 H71C (Cdk2(H71C) (C177A)) | Rate enhancement, Cdk2 S181C (Cdk2(S181C) (C177A)) | Rate constant with Cdk2 S181C (Cdk2(S181C) (C177A)) | Rate enhancement, Cdk2 R122C (Cdk2(R122C) (C177A)) | Rate constant with Cdk2 R122C (Cdk2(R122C) (C177A)) | Rate constant with Cdk2[C177A, F80C, K278C] (k(Cdk2_mut)) (Cdk2[C177A, F80C, K278C]) | Rate enhancement, Cdk2 N272 (Cdk2(N272C) (C177A)) | Rate constant with Cdk2 N272C (Cdk2(N272C) (C177A)) | Rate enhancement, Cdk2 F80C (Cdk2(C177A, F80C)) | Rate constant with Cdk2 F80C (Cdk2(C177A, F80C)) | Rate enhancement, Cdk2 T182C (Cdk2(T182C) (C177A)) | Rate constant with Cdk2 T182C (Cdk2(T182C) (C177A)) | Rate constant with Cdk2 (k(Cdk2)) [2] | Rate enhancement, Cdk2 WT [2] | Rate constant with Cdk2 WT [2] | k(Cdk2)/k(Cdk2_mut) rate enhancement [2] | other results
C=CC(=O)Nc1ccccc1N1CCOCC1 [CA-030] | 0.0159 | 0.01673 | 0.2657 | 0.004445 | 0.1317 | 0.7478 | 0.01251 | 0.2896 | 0.004845 | 0.03859 | 0.2409 | 0.00403 | 1.494 | 0.025 | 0.5957 | 0.009966 | 0.01069 | 0.639 | 0.01069 | 0.277 | Rate constant with Cdk2 H71C (Cdk2(H71C) (C177A)): 0.002204; k(Cdk2)/k(GSH) rate enhancement [2]: 0.6723
C=CC(=O)N(CC(=O)NC1CC1)C1CC1 [CA-031] | 0.01687 | 0.0174 | 0.5294 | 0.009212 | 0 | 0.5614 | 0.009769 | 0.221 | 0.003846 | 0.00466 | 1.169 | 0.02034 | 0.02876 | 0.0005005 | 1.063 | 0.01849 | 0.00688 | 0.1766 | 0.003072 | 1.479 | k(Cdk2)/k(GSH) rate enhancement [2]: 0.4081
C=CC(=O)N1CCCc2sccc2C1 [CA-034] | 0.01354 | 0.01847 | 2.718 | 0.0502 | 1.75 | 0.5858 | 0.01082 | 0.6416 | 0.01185 | 0.00997 | 0.7223 | 0.01334 | 1.278 | 0.02361 | 10.15 | 0.1874 | 0.02784 | 1.053 | 0.01944 | 2.793 | Rate constant with Cdk2 H71C (Cdk2(H71C) (C177A)): 0.03232; k(Cdk2)/k(GSH) rate enhancement [2]: 2.056
C=CC(=O)Nc1ccc(-c2ncccn2)cc1 [CA-037] | 0.01523 | 0.01516 | 1.763 | 0.02673 | 1.964 | 1.495 | 0.02267 | 0.9697 | 0.0147 | 0.1952 | 1.739 | 0.02636 | 63.59 | 0.964 | 12.3 | 0.1865 | 0.05015 | 3.308 | 0.05015 | 0.2569 | Rate constant with Cdk2 H71C (Cdk2(H71C) (C177A)): 0.02977; hit classification against Cdk2(F80C, C177A) (Cdk2(C177A, F80C)): hit ligands; kobs (Cdk2(C177A, F80C); [CA37] 0.02 mM): 0.00007107 min⁻¹; kobs (Cdk2(C177A, F80C); [CA37] 0.05 mM): 0.000271 min⁻¹; kobs (Cdk2(C177A, F80C); [CA37] 0.1 mM): 0.0006704 min⁻¹; kobs (Cdk2(C177A, F80C); [CA37] 0.2 mM): 0.001313 min⁻¹; kobs (Cdk2(C177A, F80C); [CA37] 0.35 mM): 0.002029 min⁻¹; kobs (Cdk2(C177A, F80C); [CA37] 0.5 mM): 0.002372 min⁻¹; kobs (Cdk2(C177A, F80C); [CA37] 1 mM): 0.004177 min⁻¹; kobs (Cdk2(C177A, F80C); [CA37] 2 mM): 0.005626 min⁻¹; Kd (Cdk2(C177A, F80C); [3]): 1200 µM; k2 (Cdk2(C177A, F80C); [3]): 0.009427 min⁻¹; k(Cdk2)/k(GSH) rate enhancement [2]: 3.293
